The source of these data is patent publication US5229288A, “Cytotoxicity test method” (priority 1990, dated 1993).

Numbered stars: 1 amine (or outer) side, 2 acyl side, 3 side chain; on linkers, the order of the positions; unused ones are H or OH. Bridge positions count the residues as written; N and C are the ends. Square brackets hold non-standard residues; d marks the D form. Peptide text beside a SMILES is read from it. I, II: the chains in the order shown. Actinocin(9to1) = Cc1c2oc3c(C)ccc(C(=O)[*:1])c3nc-2c(C(=O)[*:2])c(N)c1=O; NMeV = CN[C@H](C(=O)O)C(C)C; Sar = CNCC(=O)O

Data set [1] deals with fibroblasts derived from human skin. The experiment in a line: conventional monolayer culture on plastic tissue culture dish, morphological change under phase contrast microscope (Comparative Example). The data set is classed as cell-based. The following applies: 10 μg/ml, monolayer cultured for 3 days before addition. As for the experimental part:
(§1) The fibroblasts derived from human skin as used in Example 1 were cultured for 3 days on a plastic tissue culture dish (Falcon, 35 mm), and then cycloheximide and actinomycin D were added, respectively, in such an amount that the concentration of the medium would be 10 μg/ml, and the morphological change of the cells was examined under a phase contrast microscope. […] In contrast, the concentration for the detection of cytotoxicity by the conventional monolayer culture such as shown in this Comparative Example was higher than 10 μg/ml.

Test in data set [2]: as above
The following applies: human, skin fibroblasts; conventional monolayer culture; read-out: concentration for the detection of cytotoxicity by conventional monolayer culture. In kind it is cell-based, human. As to the method: as §1

Data set [3] relates to fibroblasts derived from human skin. The experiment in a line: shrinkage of detached cell sheet to spherical cell aggregate (cytotoxicity test method of the invention), phase contrast microscopy. As to the method:
(§2) N-Isopropylacrylamide monomer (here "NIPAAm", a product of Eastman Kodak Co.) 50 g was dissolved in 500 ml benzene. 2,2'-Azobisisobutyronitrile (here "AIBN") 0.2 g was used as the polymerization initiator. Polymerization was carried out at 60° C. for 12 hours in a stream of nitrogen gas with constant agitation. The polymer thus obtained was precipitated in benzene and after decantation the precipitates formed were dissolved in tetrahydrofuran and purified with ethyl ether. […] This mixed solution was poured on the bottom of a commercially available plastic culture dish (Falcon, 35 mm), and it was air-dried aseptically in a clean bench at about 10° C. […] Fibroblasts derived from human skin were suspended in Dulbecco's modified Eagle medium ("DMEM", a product of GIBCO, containing 10% (w/v) calf serum) (cell concentration in the suspension: about 2×10^5 cells/ml). Two milliliters of this cell suspension was incubated at 37° C., and then it was poured in the coated dish which was pre-incubated at 37° C. It was cultured at 37° C. for 3 days in an air/5 volume% CO2 gas incubator. After 3 days at which point the cultured cells covered the surface of the bottom of the dish completely, the dish was taken out from the 37° C. incubator and left to stand at 4° C. on ice. After the cell sheet was completely detached from the surface of the bottom of the dish, the old medium was discarded and the sheet was washed twice with fresh medium at 4° C. to remove the dissolved polymer and the collagen.
(§3) During the shrinking process, the cell aggregate was examined at different times by a phase contrast microscope. Size (average values of longer diameter and shorter diameter) of the cell aggregate was measured, and % shrinkage which is a relative value considering the diameter of the cell sheet immediately after the detachment as 100% was calculated, and the results were plotted against time as shown in FIG. 1.
(§4) After a cell sheet was detached and transferred onto a hydrophobic dish in the same manner as in the Control Example, cycloheximide (here "CH") was added to the culture medium for the cell sheet to bring the concentration to 0.3 and 3μg/ml of medium, respectively. The shrinkage process of the detached cell sheet was examined by the phase contrast microscopy while the cell sheet was cultured in the culture medium containing CH in the hydrophobic dish. […] At the second day after detachment, as shown in FIG. 2A by an arrow sign, the added CH was completely removed by washing the cell aggregate with fresh culture medium and then transferring it into the vessel containing fresh culture medium.
(§5) Twelve hours before a cell sheet was detached from the cell culture substrate and transferred onto a hydrophobic dish in the same manner as in Control Example, actinomycin D (here "AD") was added to the culture medium to bring the concentration to 0.003 and 0.03 μg/ml of medium, respectively. Then the shrinkage process of the detached cell sheet was examined by phase contrast microscopy while the detached cell sheet was cultured in the culture medium containing 0.003 and 0.03 μg/ml (medium) of AD, respectively, in the hydrophobic dish.

The nature of the next data set: in vitro. The following applies: human, skin fibroblasts. As to the method:
as §2, §3, §4, §5

[4] abbreviates: AD more than 0.03 μg/ml, added twelve hours before detachment, FIG. 2B.
[5] abbreviates: CH more than 3 μg/ml, added after detachment and transfer, FIG. 2A.

`Cc1c2oc3c(C)ccc(C(=O)N[C@@H]4C(=O)N[C@H](C(C)C)C(=O)N5CCC[C@H]5C(=O)N(C)CC(=O)N(C)[C@@H](C(C)C)C(=O)O[C@@H]4C)c3nc-2c(C(=O)N[C@@H]2C(=O)N[C@H](C(C)C)C(=O)N3CCC[C@H]3C(=O)N(C)CC(=O)N(C)[C@@H](C(C)C)C(=O)O[C@@H]2C)c(N)c1=O` [AD, actinomycin D] (I: T[dV]P[Sar][NMeV] / II: T[dV]P[Sar][NMeV]; ester I:1-I:C, II:1-II:C; linker I:N-II:N via Actinocin(9to1)): in data set [1], the “morphological change of the cells” value is on record as “No morphological change was observed at all”. Moreover, in data set [2], the MCC was over 10 µg/mL. Moreover, in data set [3] (setting [4]), the “formation of spherical cell aggregate” value is recorded as “no formation of any spherical cell aggregate was observed” and the “shrinkage behavior of phase II (0.5 th to second day after detachment)” value was “significantly interrupted”. In addition, the “shrinkage after removal of AD (reversibility)” value in data set [3] (AD removed by washing at second day after detachment, FIG. 2B) was “the shrinkage started again”. Also, the “concentration of AD which inhibits phase II relative to that of CH” value in data set [3] (ratio AD to CH) was “about 1/100”. In “in vitro”, this compound displayed an MCC of 0.03 µg/mL.
As to `C[C@@H]1C[C@@H]([C@H](O)CC2CC(=O)NC(=O)C2)C(=O)[C@@H](C)C1` [CH, cycloheximide], in data set [1], the “morphological change of the cells” value is given as “No morphological change was observed at all”. Further, the MCC in data set [2] was over 10 µg/mL. In addition, in data set [3] (setting [5]), the “formation of spherical cell aggregate” value is given as “no formation of any spherical cell aggregate was observed” and the “shrinkage behavior of phase II (0.5 th to second day after detachment)” value is given as “completely interrupted”. Moreover, in data set [3] (CH removed by washing at second day after detachment, FIG. 2A), the “shrinkage after removal of CH (reversibility)” value is reported as “the shrinkage started again”. This compound displayed an MCC in the data set “in vitro” of 3 µg/mL.
